Measurements: patent publication US5484780A, “Angiotensin II antagonists” (Eli Lilly and Company, priority 1994, dated 1996)

Tests used:
[1] = target: T1, angiotensin-induced vasoconstriction (rabbit aorta) (Oryctolagus cuniculus, UniProt P34976); experiment: Rabbit Aorta Test System: antagonism of angiotensin II contraction of aortic rings; set-up: species or system New Zealand white rabbits; conditions: contraction to AII 10^-10 to 10^-7 M, 30 minutes incubation with compound; pA2 = -log KB
T1 construct: The thoracic aortas were removed and cleaned of excess fat and connective tissue; from tissue; host or cells: thoracic aorta rings of New Zealand white rabbits (animals from Hazelton)
T1 sequence (P34976 1-359): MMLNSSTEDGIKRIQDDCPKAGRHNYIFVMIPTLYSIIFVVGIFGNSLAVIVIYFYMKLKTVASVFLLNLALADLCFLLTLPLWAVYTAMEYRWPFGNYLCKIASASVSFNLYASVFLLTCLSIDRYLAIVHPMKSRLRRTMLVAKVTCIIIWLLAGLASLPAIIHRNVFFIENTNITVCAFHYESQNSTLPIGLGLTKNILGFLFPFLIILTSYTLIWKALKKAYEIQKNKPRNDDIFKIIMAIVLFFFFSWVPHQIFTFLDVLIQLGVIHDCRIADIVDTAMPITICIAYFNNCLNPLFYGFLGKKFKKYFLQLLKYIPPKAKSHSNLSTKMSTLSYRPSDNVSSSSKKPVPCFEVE
Procedure: (§1) As previously discussed, the compounds of Formula I are potent effective antagonists of angiotensin II. The ability of representative compounds of Formula I to block angiotensin II receptor binding was determined using the adrenal glomerulosa assay. The ability to antagonize angiotensin-induced vasoconstriction was evaluated in the rabbit aorta test system.
New Zealand white rabbits (Hazelton, 2-3 kg) were sacrificed by cervical dislocation. The thoracic aortas were removed and cleaned of excess fat and connective tissue. Rings of tissue (3 mm wide) were mounted in 10 ml tissue baths between 2 L-shaped stainless steel hooks. The lower hook was attached to a stationary rod. The upper hook was attached to a force displacement transducer (Grass model FT.03). The bath chambers were maintained at 37° C., aerated with 95% 02 /5% C02, and contained physiological solution of the following composition (mM): NaCl, 117; glucose, 5.6; NaH2 PO4, 1.0; MgS04, 0.7; KCl, 5.2; CaCl2, 1.8; NaHCO3, 26; and phentolamine HCl, 0.003.
Rings were equilibrated for 1 hour with 2 g of tension. During the equilibration period, the tissues were washed by overflow every 15 minutes. Rings were then exposed to 10^-8 M angiotensin II (AII) and were allowed to contract until a steady state was reached. Tissues were then washed every 15 minutes for 1 hour. This was repeated every hour until the AII response stabilized. A cumulative concentration response curve to AII (10^-10 to 10^-7 M) was then obtained. At the conclusion of the concentration response curve, tissues were washed every 2 minutes until baseline tension was reached, then every 15 minutes for 30 minutes. Compounds were added in a volume of 10 μl DMSO and allowed to incubate for 30 minutes before repeating the concentration response curve to AII. Contractions to AII were expressed as a percent of the maximum contraction obtained in the control curve (the first AII concentration response curve). EC50 's (concentration that contracted the tissues to 1/2 the control maximum) for each curve were calculated using a 4 parameter logistics model (NonLin, SAS Institute). Potency data for each compound tested are expressed as the pA2 (defined as-log KB, where KB =[molar concentration of antagonist]/[(EC50 AII with antagonist/EC50 AII without antagonist)-1]).

[2] = target: angiotensin II receptor (adrenal membranes); experiment: Adrenal Glomerulosa Test System: binding of I^125-angiotensin II to adrenal membranes; conditions: displacement of 0.1 nM I^125-angiotensin II, rat adrenal membranes, 90 minutes, room temperature; KI by Cheng Prusoff equation; read-out: Adrenal Glomulosa (KI)
Procedure: as §1
Binding of I^125 -angiotensin II to adrenal membranes was routinely carried out in 96-well filtration plates. Adrenal membranes were prepared from the capsular portion (glomerulosal layer attached) of rat adrenal glands by differential centrifugation. Briefly, capsules were homogenized in a solution containing sucrose, 250 mM; MgCl2, 1 mM; and tris, 5 mM at pH 7.5 and 4° C. using a polytron at setting 5 for 20 seconds. The homogenate was stirred, gently, for 15 minutes at 4° C. and then centrifuged 10 minutes, at 1000×g, 4° C. The supernatant was centrifuged 30 minutes, at 30,000×g, 4° C., and the resulting pellet resuspended in 50 mM tris. Membrane preparations were stored in aliquots at -70° C. until used. Binding of I^125 -angiotensin II to adrenal membranes was performed at room temperature for 90 minutes in 96-well plates containing a hydrophilic polyvinylidene fluoride membrane (0.45 μm, Millipore-GV multiscreen). Each 250 μincubate contained the following (final concentration): tris, 50 mM; NaCl, 120 mM; MgCl2, 5 mM; dithiothrietol 1 mM; bovine serum albumin, 0.05%; I^125 -angiotensin II, 0.1 nM; and adrenal membrane protein, 8-15 μg. Antagonists were added in concentrations from 10 nM to 100 μM. Non-specific binding was measured in the presence of 0.1 μM Sar1, Ile8 angiotensin II.
Binding was terminated by vacuum filtration. Receptor-ligand complex trapped on filters was washed 3 times with 300 μl ice-cold wash solution (tris, 50 mM; NaCl, 120 mM; MgCl2, 5 mM; dithiothrietol, 1 mM). Filter discs were dried, punched out and counted in a gamma counter at 52% efficiency. Specific binding represented 96% of total binding (approximately 150 fmol angiotensin II/mg protein). The molar concentration (IC50) of the inhibitor that displaced 50% of the binding of I^125 angiotensin II for each compound was calculated using a 4 parameter logistics model (NonLin, SAS Institute). Data are expressed as KI calculated using the Cheng Prusoff equation. See Cheng et al. Biochem. Pharmacol. 22: 3099 (1973).

SMILES	Kb [1]	Ki [2]	Rabbit Aorta (pA2) [1]
CCCCCCC(C(=O)NCC)n1cnc(NC(=O)c2ccccc2S(=O)(=O)O)c1 (stereo not drawn) [Example 1, N-Ethyl-2-[4-(2-sulfobenzoyl)amino-1H-imidazol-1-yl]octanoamide]	2000 nM	10300 nM	
CCCCCCC(C(=O)NCCC)n1cnc(NC(=O)c2ccccc2S(=O)(=O)O)c1 (stereo not drawn) [Example 2, N-Propyl-2-[4-(2-sulfobenzoyl)amino-1H-imidazol-1-yl]octanoamide]	794 nM	8200 nM	
CCCCCCC(C(=O)NCC(F)(F)F)n1cnc(NC(=O)c2ccccc2S(=O)(=O)O)c1 (stereo not drawn) [Example 3, N-(2,2,2-Trifluoroethyl)-2-[4-(2-sulfobenzoyl)amino-1H-imidazol-1-yl]octanoamide]	3980 nM	9600 nM	
CCCCCCC(C(=O)NC(C)(C)CO)n1cnc(NC(=O)c2ccccc2S(=O)(=O)O)c1 (stereo not drawn) [Example 4, N-[2-(1-Hydroxy-2-methyl)propyl]-2-[4-(2-sulfobenzoyl)amino-1H-imidazol-1-yl]octanoamide]	1000 nM	12100 nM	
CCCCCCC(C(=O)N1CCNC1=O)n1cnc(NC(=O)c2ccccc2S(=O)(=O)O)c1 (stereo not drawn) [Example 5, 2-[[[1-[1-[(2-oxo-1-imidazolidinyl)carbonyl]heptyl]-1H-imidazol-4-yl]amino]carbonyl]benzenesulfonic acid]	501 nM	178000 nM	
CCCCCCC(C(=O)Nc1ccccn1)n1cnc(NC(=O)c2ccccc2S(=O)(=O)O)c1 (stereo not drawn) [Example 7, N-(2-Pyridyl)-2-[4-(2-sulfobenzoyl)amino-1H-imidazol-1-yl]octanoamide]	1580 nM	6800 nM	
CCCCCCC(C(=O)Nc1ccccc1O)n1cnc(NC(=O)c2ccccc2S(=O)(=O)O)c1 (stereo not drawn) [Example 8, N-(2-Hydroxyphenyl)-2-[4-(2-sulfobenzoyl)amino-1H-imidazol-1-yl]octanoamide]	1580 nM	13000 nM	

Further lines, results first:

Kb [1]	Ki [2]	Rabbit Aorta (pA2) [1]	SMILES
251 nM	12400 nM		CCCCCCC(C(=O)Nc1ccccc1C(=O)O)n1cnc(NC(=O)c2ccccc2S(=O)(=O)O)c1 (stereo not drawn) [Example 9, N-(2-Carboxyphenyl)-2-[4-(2-sulfobenzoyl)amino-1H-imidazol-1-yl]octanoamide]
63.1 nM	2930 nM		CCCCCCC(C(=O)O)n1cnc(NC(=O)c2cccc(O)c2S(=O)(=O)O)c1 (stereo not drawn) [Example 10, 2-[4-(3-Hydroxy-2-sulfobenzoyl)amino-1H-imidazol-1-yl]octanoic acid]
		8.9	CCCCCC[C@H](C(=O)N1C[C@@H](Oc2ccc(NS(=O)(=O)C(F)(F)F)cc2)C[C@H]1C(=O)O)n1cnc(NC(=O)c2ccccc2S(=O)(=O)O)c1 [Example 93, (R)-1-[1-oxo-2-[4-(2-sulfobenzoyl)amino-1H-imidazol-1-yl]octyl]-4-(cis)-((4-N-triflouromethanesulfonamido)-phenoxy)-L-proline]
0.251 nM			CCCCCC[C@H](C(=O)N1C[C@@H](Oc2ccc(N(C)S(C)(=O)=O)cc2)C[C@H]1C(=O)O)n1cnc(NC(=O)c2ccccc2S(=O)(=O)O)c1 [Example 94, (R)-1-[1-oxo-2-[4-(2-sulfobenzoyl)amino-1H-imidazol-1-yl]octyl]-4-(cis)-[(4-N,N-methyl-methanesulfonamido)-phenoxy]-L-proline]
0.158 nM			CCCCCC[C@H](C(=O)N1C[C@@H](Oc2ccc(CNS(C)(=O)=O)cc2)C[C@H]1C(=O)O)n1cnc(NC(=O)c2ccccc2S(=O)(=O)O)c1 [Example 95]
